In PubChem BioAssay AID1963979 (Molecular Pharmacology Branch, DTP, NCI, 2024):

Tested on: 361931-004-R-J1-PDC multicell spheroid viability
Assay: Anticancer human tumor 361931-004-R-J1-PDC patient-derived colon adenocarcinoma cell line growth inhibition [PI3K]
Details: for IC50: curve of first compound; for viability, T/C: stronger effect = lower value
Summary of the method: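 Multi-cell spheroids combine tumor cells with HUVEC and human MSCs, treated with targeted agents alone or with inavolisib, alpelisib, duvelisib or copanlisib. Concentrations fall in half-log steps from at or near clinical Cmax, or from 10 microM where Cmax is unknown; viability read-out.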

[1] = second compound 0.0316 µM, first compound 0.0316 µM
[2] = second compound 0.0316 µM, first compound 0.1 µM
[3] = second compound 0.0316 µM, first compound 0.316 µM
[4] = second compound 0.0316 µM, first compound 1 µM
[5] = second compound 0.1 µM, first compound 0.0316 µM
[6] = second compound 0.1 µM, first compound 0.1 µM
[7] = second compound 0.1 µM, first compound 0.316 µM
[8] = second compound 0.1 µM, first compound 1 µM
[9] = second compound 0.316 µM, first compound 0.0316 µM
[10] = second compound 0.316 µM, first compound 0.1 µM
[11] = second compound 0.316 µM, first compound 0.316 µM
[12] = second compound 0.316 µM, first compound 1 µM
[13] = second compound 1 µM, first compound 0.0316 µM
[14] = second compound 1 µM, first compound 0.1 µM
[15] = second compound 1 µM, first compound 0.316 µM
[16] = second compound 1 µM, first compound 1 µM
[17] = second compound 3.16 µM, first compound 0.0316 µM
[18] = second compound 3.16 µM, first compound 0.1 µM
[19] = second compound 3.16 µM, first compound 0.316 µM
[20] = second compound 3.16 µM, first compound 1 µM
[21] = second compound 10 µM, first compound 0.0316 µM
[22] = second compound 10 µM, first compound 0.1 µM
[23] = second compound 10 µM, first compound 0.316 µM
[24] = second compound 10 µM, first compound 1 µM
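Also: spheroids exposed to agents for seven days before readout.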

CC(C)NCC(C(=O)N1CCN(c2ncnc3c2C(C)CC3O)CC1)c1ccc(Cl)cc1 (centres undefined) + Cc1nc(NC(=O)N2CCCC2C(N)=O)sc1-c1ccnc(C(C)(C)C(F)(F)F)c1 showed an IC50 (second compound 0.0316 µM) of 1.38 µM, an IC50 (second compound 0.1 µM) of 1.52 µM and an IC50 (second compound 0.316 µM) of 1.09 µM. For the same molecule, the IC50 (second compound 1 µM) was 1.08 µM, the IC50 (second compound 3.16 µM) was 1.02 µM and the IC50 (second compound 10 µM) was 0.631 µM. The viability, T/C [1] was 96.2%, the viability, T/C [2] was 102% and the viability, T/C [3] was 85.4%. For the same molecule, the viability, T/C [4] was 56.2%, the viability, T/C (second compound 0.0316 µM, first compound 3.16 µM) was 34.5% and the viability, T/C (second compound 0.0316 µM, first compound 10 µM) was 27%. For the same molecule, the viability, T/C [5] was 97%, the viability, T/C [6] was 87.4% and the viability, T/C [7] was 94.3%. It also gave a viability, T/C [8] of 60.2%, a viability, T/C (second compound 0.1 µM, first compound 3.16 µM) of 30.7% and a viability, T/C (second compound 0.1 µM, first compound 10 µM) of 17.6%. For the same molecule, the viability, T/C [9] was 96.8%, the viability, T/C [10] was 93.9% and the viability, T/C [11] was 68.5%. The viability, T/C [12] was 51.5%, the viability, T/C (second compound 0.316 µM, first compound 3.16 µM) was 34.2% and the viability, T/C (second compound 0.316 µM, first compound 10 µM) was 18.1%. For the same molecule, the viability, T/C [13] was 87.9%, the viability, T/C [14] was 96.7% and the viability, T/C [15] was 76.8%. For the same molecule, the viability, T/C [16] was 50.6%, the viability, T/C (second compound 1 µM, first compound 3.16 µM) was 29.6% and the viability, T/C (second compound 1 µM, first compound 10 µM) was 16.7%. It also gave a viability, T/C [17] of 72.3%, a viability, T/C [18] of 84% and a viability, T/C [19] of 73.9%. The viability, T/C [20] was 46.6%, the viability, T/C (second compound 3.16 µM, first compound 3.16 µM) was 29.7% and the viability, T/C (second compound 3.16 µM, first compound 10 µM) was 13.4%. For the same molecule, the viability, T/C [21] was 62.1%, the viability, T/C [22] was 56.8% and the viability, T/C [23] was 63.4%. It also gave a viability, T/C [24] of 42.4%, a viability, T/C (second compound 10 µM, first compound 3.16 µM) of 21.6% and a viability, T/C (second compound 10 µM, first compound 10 µM) of 11.9%.

With CCN1CCN(Cc2ccc(Nc3ncc(F)c(-c4cc(F)c5nc(C)n(C(C)C)c5c4)n3)nc2)CC1 + Cc1nc(NC(=O)N2CCCC2C(N)=O)sc1-c1ccnc(C(C)(C)C(F)(F)F)c1 the IC50 (second compound 0.0316 µM) was > 1 µM, the IC50 (second compound 0.1 µM) was > 1 µM and the IC50 (second compound 0.316 µM) was > 1 µM. The IC50 (second compound 1 µM) was 0.605 µM, the IC50 (second compound 3.16 µM) was 0.111 µM and the IC50 (second compound 10 µM) was 0.0189 µM. The viability, T/C (second compound 0.0316 µM, first compound 0.00316 µM) was 91.8%, the viability, T/C (second compound 0.0316 µM, first compound 0.01 µM) was 99.3% and the viability, T/C [1] was 99.5%. It also gave a viability, T/C [2] of 93.8%, a viability, T/C [3] of 79.7% and a viability, T/C [4] of 82.1%. It also gave a viability, T/C (second compound 0.1 µM, first compound 0.00316 µM) of 99.6%, a viability, T/C (second compound 0.1 µM, first compound 0.01 µM) of 97.2% and a viability, T/C [5] of 96.6%. For the same molecule, the viability, T/C [6] was 82.6%, the viability, T/C [7] was 81.7% and the viability, T/C [8] was 57.4%. The viability, T/C (second compound 0.316 µM, first compound 0.00316 µM) was 97.9%, the viability, T/C (second compound 0.316 µM, first compound 0.01 µM) was 90.2% and the viability, T/C [9] was 83.8%. For the same molecule, the viability, T/C [10] was 72.6%, the viability, T/C [11] was 69.5% and the viability, T/C [12] was 56.4%. The viability, T/C (second compound 1 µM, first compound 0.00316 µM) was 95.2%, the viability, T/C (second compound 1 µM, first compound 0.01 µM) was 87.7% and the viability, T/C [13] was 75.2%. For the same molecule, the viability, T/C [14] was 74.3%, the viability, T/C [15] was 65.2% and the viability, T/C [16] was 39.7%. For the same molecule, the viability, T/C (second compound 3.16 µM, first compound 0.00316 µM) was 75.4%, the viability, T/C (second compound 3.16 µM, first compound 0.01 µM) was 67.2% and the viability, T/C [17] was 54.9%. For the same molecule, the viability, T/C [18] was 51.9%, the viability, T/C [19] was 46% and the viability, T/C [20] was 37.3%. For the same molecule, the viability, T/C (second compound 10 µM, first compound 0.00316 µM) was 65.9%, the viability, T/C (second compound 10 µM, first compound 0.01 µM) was 59% and the viability, T/C [21] was 40.6%. For the same molecule, the viability, T/C [22] was 40.5%, the viability, T/C [23] was 32.2% and the viability, T/C [24] was 30.5%.
